From patent US20220062165A1, “COMPOSITIONS AND METHODS FOR INTRANASAL DELIVERY OF PREGNENOLONE” (M et P Pharma AG, priority 2018, published 2022)
Entries after “also recorded” stand apart in the source; their conditions may differ.

Experiments:
Set-up in all cases: species or system rat
[1] = system: extracellular acetylcholine levels in the amygdala; assay: In vivo microdialysis after lateralized intranasal administration (one nostril), amygdala; conditions: 5 μl of 11.2 mg/mL gel in one nostril, vehicle in the other; anesthetized rats; n=10
From the text: Subjects. A total number of 10 adult male Wistar rats 3-4 months of age and weighting between 400 and 500 grams, at the time of surgery, were obtained from the local animal facility (Tierversuchsanlage, University of Dusseldorf, Germany). They were grouped 4 per cage (Makrolon cage, type IV, 60.0×20.0×38.0 centimeter), and separated into individual cases after the surgery. They were housed under a reversed light-dark cycle (light off from 7 after midnight (AM) to 7 post meridiem (PM)), with free access to food and water. […] After two weeks of adaptation, animals underwent microdialysis as described below. All experiments were carried out in accordance with the European Communities Council Directive (86/609/EEC) on animal welfare, and approved by the German Animal Protection Law Authorities—LANUV Nordrhein-Westfalen.
Surgery. Rats underwent implantation of microdialysis probes into specific brain areas. They were anesthetized with a mixture of ketamine hydrochloride (90.0 milligram/kilogram (mg/kg); Pharmacia & Upjohn) and xylazine hydrochloride (8.0 mg/kg; Bayer) and placed in a stereotaxic frame (David Kopf Instruments). […]
Microdialysis. […] The animal was placed in an acrylic box (45×25×22 centimeter), and the body temperature was monitored and held stable at 36.5±0.5 degrees Celsius by atemperature controller (CMA/150) and a heating pad. […]

[2] = system: extracellular acetylcholine levels in the frontal cortex; assay: In vivo microdialysis after intranasal administration in both nostrils, frontal cortex; conditions: 5 μl each in both nostrils
Procedure: (§1) Acetylcholine concentration values are presented as % of baseline with six baseline samples taken as 100 (mean+SE). Pregnenolone was administrated intranasally at a volume of 5 μl each in both nostrils, at the 0 minute time point. Time is presented in the x-axis and mean and standard error of acetylcholine concentration (expressed as % of baseline) are presented in the y-axis. Filled black circles represent the vehicle, unfilled white circles represent the 5.6 mg/mL pregnenolone dose and the triangle represents the 11.2 mg/mL pregnenolone dose.
(§2) The semipermeable membrane allows molecules smaller than 6 KDa to pass through. The length of the active membrane is 2 mm for the frontal cortex and amygdala, and 4 mm for the hippocampus.
(§3) Microdialysis. Prior the microdialysis process, the animals were anesthetized with Urethane intraperitoneal injection. (1.25 gram/kilogram, Sigma Aldrich). To allow fluid supply (perfusion liquid) (Ringer's solution 0.2 milliliter every 20 minutes) without physical contact with the animal, a catheter was placed into the intraperitoneal cavity. The animal was placed in an acrylic box (45×25×22 centimeter), and the body temperature was monitored and held stable at 36.5±0.5 degrees Celsius by atemperature controller (CMA/150) and a heating pad. […]

[3] = system: extracellular acetylcholine levels in the hippocampus; assay: In vivo microdialysis after intranasal administration in both nostrils, hippocampus; conditions: 5 μl each in both nostrils
Procedure: as §1, §2, §3

[4] = system: extracellular acetylcholine levels in the amygdala; assay: In vivo microdialysis after intranasal administration in both nostrils, amygdala; conditions: 11.2 mg/mL, 5 μl each in both nostrils; n=4
Procedure: as §1, §2, §3

CC(=O)[C@H]1CC[C@H]2[C@@H]3CC=C4C[C@@H](O)CC[C@]4(C)[C@H]3CC[C@]12C [pregnenolone]
extracellular acetylcholine in the amygdala contralateral to the treated nostril [1]: not in the contralateral amygdala
extracellular acetylcholine in the amygdala ipsilateral to the treated nostril [1]: Higher increase in the ipsilateral amygdala of extracellular level of acetylcholine; also recorded: increases acetylcholine in the amygdala ipsilateral to this nostril
effect on acetylcholine release in the frontal cortex ([2]; 5.6 mg/mL, n=5): Neither pregnenolone (PREG) at dosage 5.6 mg/mL or 11.2 mg/mL had an effect
effect on acetylcholine release in the frontal cortex ([2]; 11.2 mg/mL, n=6): Neither pregnenolone (PREG) at dosage 5.6 mg/mL or 11.2 mg/mL had an effect
effect on acetylcholine release in the hippocampus ([3]; 5.6 mg/mL, n=7): had no effect
effect on acetylcholine release in the hippocampus ([3]; 11.2 mg/mL, n=5): had an effect on acetylcholine release in the hippocampus, but this effect was not significant
effect on acetylcholine (ACh) release in the amygdala [4]: induced an increase in acetylcholine release in the amygdala
